Results taken from paper doi:10.1101/2024.08.19.608619, “Discovery of potent SARS-CoV-2 nsp3 macrodomain inhibitors uncovers lack of translation to cellular antiviral response” (bioRxiv, 2024).
≈ marks a conversion by molar mass, not a printed value. Where “and” joins values, the source holds several entries; their conditions need not be identical. Equal entries are not always repeated. Where two headings read alike, the source gives them in different places.

Key:
[1] = Hepatic microsomal stability, MLM; type: in vitro ADME
[2] = test system: HeLa-ACE2 cells; details: protocol HeLa-ACE2 cytotoxicity; for perc_max_measured: highest measured response of the dose series; for perc_min_measured: lowest measured response of the dose series
[3] = in vitro; details: human, hela-ace2 cells, 50.0
[4] = LogD; details: pH 7.4
[5] = In vitro kinetic solubility
[6] = test system: SARS-CoV-2, isolate USA-WA1/2020; test: microbe, parasite or virus in culture; type: cell-based; details: for perc_max_measured: maximum measured response of dose series; for perc_min_measured: minimum measured response of dose series
[7] = test system: iPSC pneumocytes; test: iPSC pneumocytes cytotoxicity; type: cell-based; details: for perc_max_measured: highest measured response of the dose series; for perc_min_measured: lowest measured response of the dose series
From the text: (§1) Supplement media-1.zip/Cytotoxicity.csv, table | column: cc10; cc50; perc_min_measured; perc_max_measured

[8] = test system: MERS-CoV; type: cell-based; details: Vero 76 MERS-CoV antiviral effect
[9] = Hepatic microsomal stability, HLM; type: in vitro ADME, human; details: In vitro human liver microsomal stability; for perc_remaining_no_cofactor: no cofactor; for microsomal CLint: liver microsomes
[10] = in vitro; set-up: Cytotoxicity in iPSC-derived pneumocytes, CC50; details: human, ipsc-derived pneumocytes, read-out: 50.0
From the text: Finally, we consider the hypothesis that interferon response triggers ADP-ribosylation, thus profiling the compounds in enhanced and physiologically relevant interferon environments could reveal detectable antiviral effects. […] Furthermore, HeLa-ACE2 cells, and all cancerous cell lines, display defective innate immune response ([1]). As such, we also assess our compound in a primary-like iPSC-derived pneumocyte system (Figure 7C), showing likewise a lack of antiviral activity in this physiologically relevant innate immunity system.

[11] = test system: Vero 76
[12] = Permeability Papp (AB) MDR1/MDCKII; details: for papp_a_to_b_mean: A to B
[13] = test system: SARS-CoV-2; test: Antiviral effect in iPSC-derived pneumocyte system; type: cell-based; details: iPSC pneumocytes SARS-CoV-2 antiviral effect; for perc_max_measured: maximum measured response of dose series; for perc_min_measured: minimum measured response of dose series
[14] = in vitro; details: human
[15] = iPSC pneumocytes cytotoxicity; type: cell-based; details: protocol iPSC pneumocytes cytotoxicity
From the text: as §1

[16] = biological target: SARS-CoV-2 nsp3-mac1 (Severe acute respiratory syndrome coronavirus 2, UniProt P0DTD1); test: biochemical
[17] = test system: MDR1; test: Permeability Papp (AB) MDR1/MDCKII; details: dog, MDCK-MDR1, papp_a_to_b_mean, In vitro MDR1-MDCKII permeability, A to B
[18] = In vitro mouse liver microsomal stability
[19] = In vitro mouse liver microsomal stability, no cofactor
[20] = In vitro kinetic solubility, ph 7.4
[21] = HeLa-ACE2 SARS-CoV-2 antiviral effect without P-gp inhibitor
[22] = HeLa-ACE2 SARS-CoV-2 antiviral effect without P-gp inhibitor, read-out: ec50
[23] = HeLa-ACE2 SARS-CoV-2 antiviral effect without P-gp inhibitor, read-out: ec90
[24] = In vitro MDR1-MDCKII permeability, mean
[25] = In vitro MDR1-MDCKII permeability, recovery A to B, mean
[26] = Severe acute respiratory syndrome coronavirus 2, HeLa-ACE2 SARS-CoV-2 antiviral effect without P-gp inhibitor, read-out: ec50
[27] = Severe acute respiratory syndrome coronavirus 2, HeLa-ACE2 SARS-CoV-2 antiviral effect without P-gp inhibitor, read-out: ec90
[28] = protocol iPSC pneumocytes cytotoxicity
[29] = IC50, nsp3-mac1 activity, Figures 1-3 and text
[30] = Severe acute respiratory syndrome coronavirus 2
[31] = In vitro MDR1-MDCKII permeability, recovery A to B, no inhibitor
[32] = Severe acute respiratory syndrome coronavirus 2, HeLa-ACE2
[33] = In vitro MDR1-MDCKII permeability, no inhibitor

Work on CNC(=O)c1c[nH]c2ncnc(N[C@H](c3ccc4c(c3)S(=O)(=O)CCC4)C(C)C)c12 (single isomer, unassigned) [ASAP-0011153] yielded a clint [1, 18] of 770.0 µL/min/mg, a perc_remaining [1, 18] of 0.0% and a t_half [1, 18] of 2.2 min. It also gave a perc_remaining_no_cofactor [1, 19] of 99.0%, a CC50 [2] of over 20 µM and a cc10 [2] of over 20.0 µM. It also gave a perc_max_measured [2] of 96.782%, a perc_min_measured [2] of 85.977% and a CC50 at 24 h [3] of over 20 µM. The logd ([4]; In vitro LogD) was 2.7, the solubility_mean [5, 20] was 336 µM (≈ 144 µg/mL) and the perc_max_measured [6, 21] was 109.331%. For the same compound, the perc_min_measured [6, 21] was 66.391%, the EC50 [6, 22] was over 20 µM and the EC90 [6, 23] was over 20 µM. It also gave a CC50 [7] of over 50 µM, a cc10 [7] of over 50.0 µM and a perc_max_measured [7] of 111.957%. It also gave a perc_min_measured [7] of 100.111%, an EC50 [8] of over 32 µM and a clint [9] of 258.0 µL/min/mg. The perc_remaining [9] was 1.0%, the t_half [9] was 6.5 min and the perc_remaining_no_cofactor [9] was 94.0%. For the same compound, the CC50 ([10]; ASAP-0008327-001=ASAP-0011153-001) was over 50 µM, the CC50 [11] was over 32 µM and the papp_a_to_b_mean [12, 24] was 1.61 ×10⁻⁶ cm/s. The perc_recovery_a_to_b_mean [12, 25] was 92.7%, the EC50 [13] was 6.74 µM and the EC90 [13] was over 50 µM. It also gave a perc_max_measured [13] of 88.736% and a perc_min_measured [13] of 31.934%.

Compound CC(C)C(Nc1ncnc2[nH]ccc12)c1ccc2c(c1)NC(=O)CO2 (centres unmarked) [ASAP-0008302] has a CC50 [14] of over 50 µM, a cc10 [2] of over 50.0 µM and a perc_max_measured [2] of 107.359%. It also gave a perc_min_measured [2] of 95.445%, a perc_max_measured [6, 21] of 123.573% and a perc_min_measured [6, 21] of 69.199%. The EC50 [6, 26] was over 50 µM, the EC90 [6, 27] was over 50 µM and the cc10 [7, 28] was over 50.0 µM. For the same compound, the perc_max_measured [7, 28] was 98.455%, the perc_min_measured [7, 28] was 82.288% and the CC50 [15] was over 50 µM. The IC50 [16, 29] was 0.71 µM, the EC50 ([13]; Severe acute respiratory syndrome coronavirus 2, iPSC) was over 50 µM and the EC90 [13, 30] was over 50 µM. The perc_max_measured [13] was 145.289% and the perc_min_measured [13] was 92.172%.

Work on CCNC(=O)c1cc2c(NC(c3ccc4c(c3)S(=O)(=O)CCC4)C(C)C)ncnc2[nH]1 (centres unmarked) [ASAP-0012349] yielded a perc_remaining [1, 18] of 43.0%, a t_half [1, 18] of 30.8 min and a perc_remaining_no_cofactor [1, 19] of 114.0%. The microsomal CLint ([1]; mouse, liver microsomes, In vitro mouse liver microsomal stability) was 54 µL/min/mg, the CC50 [14] was over 20 µM and the cc10 [2] was over 20.0 µM. The perc_max_measured [2] was 99.328%, the perc_min_measured [2] was 84.17% and the logd ([4]; pH 7.4, logd, In vitro LogD) was 2.8. The solubility ([5]; pH 7.4, solubility_mean, In vitro kinetic solubility, ph 7.4) was 316 µM (≈ 140 µg/mL), the perc_max_measured [6, 21] was 108.517% and the perc_min_measured [6, 21] was 90.612%. The EC50 [6, 26] was over 20 µM, the EC90 [6, 27] was over 20 µM and the perc_remaining [9] was 0.0%. The t_half [9] was 1.9 min, the perc_remaining_no_cofactor [9] was 102.0% and the microsomal CLint ([9]; human) was 892 µL/min/mg. The IC50 ([16]; HTRF IC50, Figure 4B, bioactive pure enantiomer) was 0.031 µM, the perc_recovery_a_to_b_mean [12, 31] was 66.9% and the Papp A→B ([17]; no inhibitor) was 0.532 ×10⁻⁶ cm/s.

For CCNC(=O)c1cc2c(NC(c3ccc4c(c3)OCCO4)C(C)C)ncnc2[nH]1 (centres unmarked) [ASAP-0008444], the perc_remaining [1, 18] was 24.0%, the t_half [1, 18] was 19.0 min and the perc_remaining_no_cofactor ([1]; In vitro mouse liver microsomal stability; no cofactor) was 109.0%. The microsomal CLint ([1]; liver microsomes; In vitro mouse liver microsomal stability) was 88 µL/min/mg, the CC50 [14] was over 20 µM and the perc_max_measured [2] was 101.322% and 84.588%. The perc_min_measured [2] was 64.265% and 70.325%, the logd [4] was 3 and the solubility ([5]; pH 7.4) was 72 µM (≈ 28.5 µg/mL). For the same compound, the perc_max_measured [6, 21] was 122.873% and 94.861%, the perc_min_measured [6, 21] was 70.184% and 54.623% and the EC50 [6, 32] was over 20 µM. It also gave an EC90 [6, 32] of over 20 µM, a perc_max_measured [7, 28] of 91.985% and a perc_min_measured [7, 28] of 70.899%. For the same compound, the perc_remaining [9] was 21.0%, the t_half [9] was 19.7 min and the perc_remaining_no_cofactor [9] was 103.0%. For the same compound, the microsomal CLint [9] was 85 µL/min/mg, the IC50 [16, 29] was 0.24 µM and the “increase in potency relative to the starting point” value ([16]; relative to ASAP-000450) was 10 x. The perc_recovery_a_to_b_mean [12, 25] was 85.8%, the Papp A→B ([17]; mean) was 2.41 ×10⁻⁶ cm/s and the EC50 [13, 30] was 41.1 µM. It also gave an EC90 [13, 30] of over 50 µM, a perc_max_measured [13] of 136.848% and a perc_min_measured [13] of 15.577%.

With CC(C)[C@H](Nc1ncnc2[nH]c(-c3cnn(CC(N)=O)c3)cc12)c1ccc2c(c1)S(=O)(=O)CCC2 (single isomer, unassigned) [ASAP-0011428] the clint [1, 18] was 39.0 µL/min/mg, the perc_remaining [1, 18] was 53.0% and the t_half [1, 18] was 42.6 min. It also gave a perc_remaining_no_cofactor [1, 19] of 98.0%, a CC50 [2] of over 20 µM and a cc10 [2] of over 20.0 µM. The perc_max_measured [2] was 96.287%, the perc_min_measured [2] was 76.492% and the CC50 at 24 h [3] was over 20 µM. It also gave a logd ([4]; In vitro LogD) of 2.1, a solubility_mean [5, 20] of 338 µM (≈ 167 µg/mL) and a perc_max_measured [6, 21] of 108.399%. The perc_min_measured [6, 21] was 92.21%, the EC50 [6, 22] was over 20 µM and the EC90 [6, 23] was over 20 µM. For the same compound, the CC50 [7] was over 50 µM, the cc10 [7] was over 50.0 µM and the perc_max_measured [7] was 106.229%. It also gave a perc_min_measured [7] of 92.999%, a clint [9] of 240.0 µL/min/mg and a perc_remaining [9] of 2.0%. The t_half [9] was 7.0 min, the perc_remaining_no_cofactor [9] was 115.0% and the CC50 ([10]; ASAP-0008327-001=ASAP-0011428-001) was over 50 µM. The papp_a_to_b_mean [12, 24] was 1.98 ×10⁻⁶ cm/s, the papp_a_to_b_mean [12, 33] was 0.0832 ×10⁻⁶ cm/s and the papp_b_to_a_mean ([12]; In vitro MDR1-MDCKII permeability, B to A, no inhibitor) was 0.072 ×10⁻⁶ cm/s. It also gave an efflux_ratio [12, 33] of 0.9, a perc_recovery_a_to_b_mean [12, 25] of 85.9% and a perc_recovery_a_to_b_mean [12, 31] of 65.5%. For the same compound, the perc_recovery_b_to_a_mean ([12]; In vitro MDR1-MDCKII permeability, recovery B to A, no inhibitor) was 72.9%, the perc_recovery_a_to_b_inhibitor_mean ([12]; MDR1-MDCKII, recovery A to B, with inhibitor Verapamil) was 73.2% and the perc_recovery_b_to_a_inhibitor_mean ([12]; MDR1-MDCKII, recovery B to A, with inhibitor Verapamil) was 79.8%. It also gave an EC50 [13] of over 50 µM, an EC90 [13] of over 50 µM and a perc_max_measured [13] of 119.318%. For the same compound, the perc_min_measured [13] was 70.174%.
